Results as given in US20250099420A1, “SMALL MOLECULE MODULATORS OF GPR139 COMPLEX” (University of Florida Research Foundation, Incorporated, priority 2022, published 2025).
Where two headings read alike, the source gives them in different places.

Legend:
parental HEK cells = test: HEK parental Agonist Counterscreen Assay (non-transfected cells); type: cell-based; settings: for Averaged Max % Response (±St. Dev.): activity relative to known control
From the text: The high control for the agonist counterscreen was Forskolin not acetylcholine.

GPR139 = target: T1, GPR139 (Homo sapiens, UniProt Q6DWJ6); test: GPR139 Agonist titration / agonist counterscreen assay (calcium detection, HEK-GPR139 cells); type: cell-based; parameters: expressed in transfected cells; host or cells: HEK Aequorin cells, Maxcyte transient transfection; settings: GPR139 Agonist Activity; for EC50: read-out: EC50; for Averaged Max % Response (±St. Dev.): activity relative to known control
T1 sequence (Q6DWJ6 1-353): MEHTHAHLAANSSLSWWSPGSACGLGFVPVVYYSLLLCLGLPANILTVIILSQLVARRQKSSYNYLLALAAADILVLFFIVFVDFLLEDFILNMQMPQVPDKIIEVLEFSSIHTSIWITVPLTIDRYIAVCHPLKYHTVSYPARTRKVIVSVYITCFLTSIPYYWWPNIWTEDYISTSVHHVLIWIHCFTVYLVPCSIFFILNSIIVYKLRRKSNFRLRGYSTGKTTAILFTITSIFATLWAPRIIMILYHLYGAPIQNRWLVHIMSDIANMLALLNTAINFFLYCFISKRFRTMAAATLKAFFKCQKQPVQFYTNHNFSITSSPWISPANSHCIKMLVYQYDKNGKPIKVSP
Experimental: GPR activity was assessed using a calcium detection assay. […] Negative control samples were treated with DMSO. […] Intracellular calcium was measured using Calcium 5.

[1] = HEK Agonist Activity section of Table 4 (parental HEK counterscreen)
[2] = Homo sapiens, HEK293, HEK Agonist Activity section of Table 4 (parental HEK counterscreen)
[3] = Homo sapiens, HEK293, HEK Agonist Activity, parental non-transfected HEK cells
[4] = values printed in E-notation without unit
[5] = HEK Agonist Activity, parental non-transfected HEK cells

SMILES	Lipophilic Efficiency (logD) (parental HEK cells; HEK Agonist Activity section)	Lipophilic Efficiency (logP) (parental HEK cells; HEK Agonist Activity section)	EC50 (parental HEK cells; [1])	Averaged Max % Response (±St. Dev.) (parental HEK cells; HEK Agonist Activity section)	Efficiency Ligand (GPR139)	Hill Slope (GPR139)	Lipophilic Efficiency (logD) (GPR139)	Lipophilic Efficiency (logP) (GPR139)	Averaged Max % Response (±St. Dev.) (GPR139)	EC50 (parental HEK cells; [2])	Lipophilic Efficiency (logD) (GPR139; based on logD)	Lipophilic Efficiency (logP) (GPR139; based on logP)	Hill Slope (GPR139; fitted dose-response curve)	Efficiency Ligand (GPR139; ligand efficiency)	Lipophilic Efficiency (logD) (parental HEK cells; HEK Agonist Activity)	Lipophilic Efficiency (logP) (parental HEK cells; HEK Agonist Activity)	Averaged Max % Response (±St. Dev.) (parental HEK cells; HEK Agonist Activity)	EC50 (GPR139; [4])	other results
COc1ccc2c(c1)C[C@H](C(=O)Nc1ccc(-c3cn[nH]c3)cc1OCC1CNC1)NC2.O=C(O)C(F)(F)F.O=C(O)C(F)(F)F.O=C(O)C(F)(F)F [SR-00000006698]	6.10	3.11	> 14100 nM	5.81 ± 4.77%	0.29	1.33	7.81	4.82	88.34 ± 12.18%	–	–	–	–	–	–	–	–	–	EC50 (GPR139; HEK-GPR139 cells): 274 nM
C=C(Nc1ccc(-c2cn[nH]c2)cc1)N(C)Cc1cccc(C(=O)CC)c1 [SR-00000007008]	1.85	1.85	–	−8.12 ± 2.24%	–	–	–	–	75.98 ± 6.44%	> 14100 nM	3.98	3.98	0.79	0.36	–	–	–	–	–
COc1ccc2c(c1)C[C@H](C(=O)Nc1ccc(-c3cn[nH]c3)cc1OCCN1CCCC1)NC2.O=C(O)C(F)(F)F.O=C(O)C(F)(F)F.O=C(O)C(F)(F)F [SR-00000007044]	3.98	2.09	> 14100 nM	26.95 ± 5.80%	0.24	1.19	5.00	3.11	81.04 ± 10.01%	–	–	–	–	–	–	–	–	–	EC50 (GPR139; HEK-GPR139 cells): 1400 nM
CCC1Cc2ccc(C)cc2CC1C(=O)Nc1ccc(-c2cn[nH]c2)cc1OCCN(C)C (stereo not drawn) [SR-00000007138]	–	–	–	–	–	–	–	–	109.71 ± 13.62%	–	5.84	4.48	0.17	0.31	3.12	1.76	10.53 ± 4.93%	27.1 nM	EC50 (parental HEK cells; [3]): > 14100 nM
COc1cccc(CNC(=O)Nc2ccc(-c3ccncc3)cc2)c1.O=C(O)C(F)(F)F [SR-00000007266]	1.76	1.75	> 14100 nM	23.72 ± 3.44%	0.36	1.16	3.29	3.29	100.59 ± 15.12%	–	–	–	–	–	–	–	–	–	EC50 (GPR139; HEK-GPR139 cells): 408 nM
Cc1cccc(CCNC(=O)c2c[nH]c3cc(-c4cn[nH]c4)ccc23)c1 [SR-00000007279]	–	–	–	–	–	–	–	–	142.11 ± 3.85%	–	4.81	4.80	0.18	0.38	2.30	2.29	17.20 ± 7.85%	43.1 nM	EC50 (parental HEK cells; [3]): > 14100 nM
CN1CC[C@H](Oc2cc(-c3cn[nH]c3)ccc2NC(=O)N(Cc2ccccc2)C2CC2)C1.O=C(O)C(F)(F)F.O=C(O)C(F)(F)F [SR-00000007518]	2.64	1.58	> 14100 nM	23.13 ± 2.30%	–	–	–	–	91.59 ± 7.88%	–	4.71	3.64	0.81	0.30	–	–	–	120 nM	–
N#Cc1ccc(OC(=O)COc2cccc3ccccc23)cc1 [SR-01000005203]	0.91	0.91	–	16.23 ± 3.90%	0.38	1.01	2.24	2.24	77.18 ± 14.00%	> 13900 nM	–	–	–	–	–	–	–	–	EC50 (GPR139; HEK-GPR139 cells): 651 nM
CCOC(=O)N1CCC2=C(CC(NC(=O)Cc3cccc4ccccc34)=C2C(C)=O)C1 [SR-01000011241]	1.05	1.05	–	1.28 ± 10.93%	0.26	1.07	1.89	1.89	63.10 ± 2.62%	> 14200 nM	–	–	–	–	–	–	–	–	–
COc1cc(OC)cc(-c2nnc(NC(=O)Cc3cccc4ccccc34)o2)c1 [SR-01000012205]	–	–	–	–	–	–	–	–	109.87 ± 14.69%	–	4.06	4.05	0.93	0.36	1.43	1.43	1.53 ± 2.99%	34.4 nM	EC50 (parental HEK cells; [5]): > 14500 nM
O=C(Cc1cccc2ccccc12)Nc1nnc(-c2cccs2)o1 [SR-01000012264]	1.35	1.34	> 14300 nM	3.88 ± 6.42%	–	–	–	–	85.12 ± 11.10%	–	3.36	3.36	0.80	0.40	–	–	–	138 nM	–
Cc1cc(Cl)ccc1OC(C)C(=O)NNC(=O)c1ccccc1 (stereo not drawn) [SR-01000013313]	–	–	–	–	–	–	–	–	93.40 ± 11.14%	–	4.45	4.44	0.63	0.48	1.41	1.40	2.95 ± 4.76%	13.3 nM	EC50 (parental HEK cells; [3]): > 14400 nM
Cc1ccc(Nc2cn[nH]c(=S)n2)c(C)c1 [SR-01000013346]	2.37	1.95	–	−4.67 ± 3.34%	0.54	0.99	3.66	3.24	74.67 ± 0.55%	> 14600 nM	–	–	–	–	–	–	–	–	EC50 (GPR139; HEK-GPR139 cells): 743 nM
CCCc1ccc(NC(=O)CCc2nc3c(c(=O)n2C)CCC3)cc1 [SR-01000017533]	2.68	2.68	–	−1.95 ± 4.81%	0.31	1.55	3.33	3.33	69.12 ± 3.13%	> 14200 nM	–	–	–	–	–	–	–	–	–
O=C(CC(c1ccccc1)c1ccccc1)Oc1coc(CSc2ncccn2)cc1=O [SR-01000020502]	–	–	–	–	–	–	–	–	91.42 ± 14.52%	–	2.69	2.69	1.13	0.32	0.13	0.13	4.84 ± 4.90%	38.7 nM	EC50 (parental HEK cells; [5]): > 13900 nM
Cc1ccc(SCC(=O)Nc2nnc(-c3ccco3)o2)cc1 [SR-01000021414]	2.38	2.38	> 14300 nM	22.31 ± 11.03%	–	–	–	–	97.10 ± 8.84%	–	4.46	4.46	0.83	0.44	–	–	–	119 nM	–
Cc1ccc(SCC(=O)Nc2nnc(-c3ccccc3Cl)o2)cc1 [SR-01000021416]	–	–	–	–	–	–	–	–	122.23 ± 2.65%	–	3.53	3.53	0.24	0.44	0.84	0.84	23.13 ± 4.18%	29.1 nM	EC50 (parental HEK cells; [3]): > 14100 nM
O=C(CSc1ccc(Cl)cc1)Nc1nnc(-c2ccco2)o1 [SR-01000021433]	2.29	2.29	–	27.04 ± 4.04%	–	–	–	–	111.88 ± 11.27%	> 14300 nM	4.59	4.59	0.56	0.45	–	–	–	71.8 nM	–
O=C(CSc1ccc(Cl)cc1)Nc1nnc(-c2ccc(F)cc2)o1 [SR-01000021435]	1.22	1.22	> 13900 nM	24.48 ± 11.03%	–	–	–	–	162.60 ± 13.73%	–	3.60	3.60	–	0.42	–	–	–	> 57.4 nM	–
